The values that follow come from patent publication US20170370908A1, “BRAIN IN VITRO MODELS, DEVICES, SYSTEMS, AND METHODS OF USE THEREOF” (President and Fellows of Harvard College, priority 2014, published 2017).

In this test the test system is pericytes. As to the kind of experiment: Muscular thin film (MTF) assay of pericyte contraction response to vasoactive agents. It is filed as cell-based. Conditions: pericytes on muscular thin films treated with vasoactive agent. From the text: FIG. 6 illustrates an assay used to measure stress applied by pericytes treated with the vasoactive agent, endothelin.
FIG. 7 illustrates stress measurement applied by pericytes treated with vasoactive agent endothelin.

`CC[C@H](C)[C@H](NC(=O)[C@H](CC(=O)O)NC(=O)[C@H](CC(C)C)NC(=O)[C@H](Cc1c[nH]cn1)NC(=O)[C@@H]1CSSC[C@H](N)C(=O)N[C@@H](CO)C(=O)N[C@H]2CSSC[C@H](NC(=O)[C@H](CCC(=O)O)NC(=O)[C@H](CCCCN)NC(=O)[C@H](CC(=O)O)NC(=O)[C@H](CCSC)NC(=O)[C@H](CC(C)C)NC(=O)[C@H](CO)NC(=O)[C@H](CO)NC2=O)C(=O)N[C@@H](C(C)C)C(=O)N[C@@H](Cc2ccc(O)cc2)C(=O)N[C@@H](Cc2ccccc2)C(=O)N1)C(=O)N[C@H](C(=O)N[C@@H](Cc1c[nH]c2ccccc12)C(=O)O)[C@@H](C)CC` [endothelin]: the “contraction response of pericytes (stress applied by pericytes)” value was “induces pericyte contraction”.
